In patent US20220402862A1 (Intellia Therapeutics, Inc., priority 2019, published 2022):
Where “and” joins values, the source holds several entries; their conditions need not be identical. Equal values may be shown once.

Key:
[1] = Dynamic light scattering of LNPs: Z-average diameter, number average diameter, PDI; assay type: physicochemical
Outline: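 Values reported are the Z-average (intensity-weighted mean size), the number-average diameter and the PDI (spread of sizes, 0 = fully uniform). All three came from dynamic light scattering of LNP preparations after dilution in PBS.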

[2] = RNA encapsulation efficiency of LNPs (Ribogreen fluorescence assay); assay type: physicochemical; conditions: for % E / Encapsulation (%): LNP; for % E (encapsulation efficiency): LNP with G534 sgRNA and Cas9 mRNA, sg:mRNA 1:2, experiment 109
Outline: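 Encapsulation efficiency is (Total RNA − Free RNA)/Total RNA. Free RNA was quantified by RiboGreen fluorescence (488/525 nm, ~10 min, RT, dark) in plain TE buffer; total RNA was quantified after LNP lysis with 0.2% Triton X-100, both against RNA standard curves.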

[3] = pKa measurement of unformulated amine lipid (fluorescence, method of Jayaraman et al.); assay type: physicochemical; conditions: 100 μM in 0.1 M phosphate buffer, pH 2.0-12.0
Experimental: The pKa of each amine lipid was determined according to the method in Jayaraman, et al. (Angewandte Chemie, 2012) with the following adaptations. […] Lipid was diluted to 100 μM in 0.1 M phosphate buffer (Boston Bioproducts) where the pH ranged from 2.0-12.0. Fluorescence intensity was measured using excitation and emission wavelengths of 321 nm and 448 nm.

[4] = test system: Transthyretin (TTR); experiment: Serum TTR measurement in rats after LNP dosing; assay type: in vivo, Sprague Dawley female rats; conditions: Experiment 109; for Serum TTR % TSS: rat serum TTR relative to TSS control; for Serum TTR: rat serum, G534 sgRNA + Cas9 mRNA LNP
[5] = test system: TTR rat gene; experiment: In vivo editing in rat liver, sgRNA targeting TTR (G534), % indel by NGS; set-up: species or system Sprague Dawley female rats; conditions: G534 sgRNA + Cas9 mRNA LNP, Experiment 109
Experimental: Sprague Dawley female rats ranging from 6-7 weeks of age were used in each study. Each animal was weighed and dosing solutions were prepared based on body weight. LNPs were dosed via the lateral tail vein in a volume of 0.35 mL per animal (approximately 2 mL per kilogram body weight). The animals were periodically observed for adverse effects for at least 24 hours post dose.
For studies measuring in vivo editing in liver, animals were dosed at 0.1 mg/kg or 0.3 mg/kg. Animals were euthanized by CO2 asphyxiation 6 days post dose. At necropsy, the liver was collected for editing analysis by NGS and blood was collected into serum separator tubes for serum TTR measurement.
In brief, to quantitatively determine the efficiency of editing at the target location in the genome, genomic DNA was isolated and deep sequencing was utilized to identify the presence of insertions and deletions introduced by gene editing.
PCR primers were designed around the target site (e.g., within B2M), and the genomic area of interest was amplified. Additional PCR was performed according to the manufacturer's protocols (Illumina) to add the necessary chemistry for sequencing. The amplicons were sequenced on an Illumina MiSeq instrument. The reads were aligned to the mouse or rat reference genome (e.g., GRCm38) after eliminating those having low quality scores. The resulting files containing the reads were mapped to the reference genome (BAM files), where reads that overlapped the target region of interest were selected and the number of wild type reads versus the number of reads which contain an insertion, substitution, or deletion was calculated.
The editing percentage (e.g., the “indel efficiency” or “percent indels”) was defined as the total number of sequence reads with insertions or deletions over the total number of sequence reads, including wild type.
In vivo delivery in a rat model was assessed by measuring editing efficiency for materials delivered with formulations including various amine lipid compounds. Cas9 mRNA (SEQ ID NO: 6) was formulated as LNPs with an sgRNA targetting the TTR rat gene (G534, SEQ ID NO: 5). LNPs were formulated and characterized as described in Example 123. Analysis of average particle size, polydispersity (PDI), total RNA content and encapsulation efficiency of RNA are shown in Table 10.
Sprague Dawley female rats were dosed i.v. at 0.1 or 0.3 mg/kg and assessed for editing in liver.

[6] = LNP, sg:mRNA 1:1, N/P 6.0, 50/9/38/3, Table 4, Experiments 101-104
[7] = LNP, sg:mRNA 1:1, N/P about 6, 50/9/38/3, Table 2, Experiments 2-20
[8] = sg:mRNA 1:1, N/P 6.0, 50/9/38/3, Table 4, Experiments 101-104
[9] = sg:mRNA 1:1, N/P about 6, amine lipid/DSPC/cholesterol/PEG-2k-DMG 50/9/38/3, Table 2, Experiments 2-20
[10] = LNP with G534 sgRNA and Cas9 mRNA, sg:mRNA 1:2, experiment 109
[11] = LNP, sg:mRNA 1:2, N/P 6.0, 50/9/38/3, Table 4, Experiment 105
[12] = sg:mRNA 1:2, N/P 6.0, 50/9/38/3, Table 4, Experiment 105
[13] = LNP, sg:mRNA 1:1.3, N/P about 6, 50/9/38/3, Table 2, Experiment 1
[14] = LNP, sg:mRNA 1:2, N/P about 6, 50/9/38/3, G650, Table 8, Experiment 108
[15] = LNP, sg:mRNA 1:2, N/P about 6, 50/9/38/3, Table 6, Experiments 106-107
[16] = sg:mRNA 1:2, N/P about 6, 50/9/38/3, G650 sgRNA, Table 8, Experiment 108

Row | Structure (SMILES) | Number mean (nm) [1, 6] | PDI [1, 6] | Z-avg (nm) [1, 6] | Number mean (nm) [1, 7] | PDI [1, 7] | Z-avg (nm) [1, 7] | % E [2, 8] | Encapsulation (%) [2, 9] | pKa [3] | Number mean (nm) [1, 10] | PDI [1, 10] | Z-avg (nm) [1, 10] | Number mean (nm) [1, 11] | PDI [1, 11] | Z-avg (nm) [1, 11] | % E (encapsulation efficiency) [2] | % E [2, 12] | Serum TTR % TSS ([4]; G534, i.v. 0.1 mg/kg) | Serum TTR % TSS ([4]; G534, i.v. 0.3 mg/kg) | Serum TTR ([4]; i.v. 0.1 mg/kg) | also measured
1 | CCCCC/C=C\C/C=C\CCCCCCCC(=O)OCC(COC(=O)CCC(OCCCCCCCC)OCCCCCCCC)COC(=O)NCC1CCCN1CC (stereo not shown) [Compound 40, 3-((4,4-bis(octyloxy)butanoyl)oxy)-2-(((((1-ethylpyrrolidin-2-yl)methyl)carbamoyl)oxy)methyl)propyl (9Z,12Z)-octadeca-9,12-dienoate] | 66.92 nm | 0.014 | 83.69 nm | 56.73 nm | 0.056 | 74.12 nm | 95% | 98% | 7.33 |  |  |  |  |  |  |  |  |  |  |  | 
2 | CCCCCCCCCC(C)OC(=O)CCCCCCCC(=O)OCC(COC(=O)CCC(OCCCCCCCC)OCCCCCCCC)COC(=O)OCCCN(CC)CC (stereo not shown) [Compound 94, 1-(344,4-bis(octyloxy)butanoyl)oxy)-2-((((3-(diethylamino)propoxy)carbonyl)oxy)methyl)propyl) 9-(undecan-2-yl) nonanedioate] |  |  |  | 78.22 nm | 0.018 | 96.35 nm |  | 99% | 6.14 | 77 nm | 0.02 | 95 nm | 80.04 nm | 0.032 | 98.90 nm | 97% | 99% | 39.5 % TSS | 8.2 % TSS | 639.5 µg/mL | Serum TTR ([4]; i.v. 0.3 mg/kg): 132.9 µg/mL; Editing Mean % Indel ([5]; i.v. 0.1 mg/kg): 31.7%; Editing Mean % Indel ([5]; i.v. 0.3 mg/kg): 60.0%
3 | CCCCC/C=C\C/C=C\CCCCCCCC(=O)OCC(COC(=O)CCC(OCCCCCCCC)OCCCCCCCC)COC(=O)OCCCN(CC)CC (stereo not shown) [Compound 1, 3-((4,4-bis(octyloxy)butanoyl)oxy)-2-((((3-(diethylamino)propoxy)carbonyl)oxy)methyl)propyl (9Z,12Z)-octadeca-9,12-dienoate, reference compound] | 69.51 nm and 62.86 nm and 64.97 nm and 63.19 nm |  | 84.93 nm and 79.83 nm and 82.71 nm and 79.18 nm |  |  |  | 98% and 99% and 97% | 96% and 99% and 98% and 97% | 6.4 | 73 nm | 0.01 | 88 nm | 73.15 nm | 0.033 | 88.60 nm | 98% | 99% | 56.6 % TSS | 7.1 % TSS | 916.9 µg/mL | Number mean (nm) [1, 13]: 63.16 nm; PDI [1, 13]: 0.022; Z-avg (nm) [1, 13]: 77.85 nm; Number mean (nm) [1, 14]: 70 nm; PDI [1, 14]: 0.03; Z-avg (nm) [1, 14]: 86 nm; Number mean (nm) [1, 15]: 76 nm and 71 nm; Z-avg (nm) [1, 15]: 91 nm and 88 nm; Encapsulation (%) ([2]; sg:mRNA 1:1.3, N/P about 6, amine lipid/DSPC/cholesterol/PEG-2k-DMG 50/9/38/3, Table 2, Experiment 1): 97%; % E [2, 16]: 98%; % E ([2]; sg:mRNA 1:2, N/P about 6, 50/9/38/3, TTR sgRNA (SEQ ID NO: 4), Table 6, Experiments 106-107): 99%; Serum TTR ([4]; i.v. 0.3 mg/kg): 114.3 µg/mL; Editing Mean % Indel ([5]; i.v. 0.1 mg/kg): 21.1%; Editing Mean % Indel ([5]; i.v. 0.3 mg/kg): 61.3%
4 | CCCCCCCCCCOC(=O)CCCCCCCC(=O)OCC(COC(=O)CCC(OCCCCCCCC)OCCCCCCCC)COC(=O)OCCCN(CC)CC (stereo not shown) [Compound 59, 1-(3-((4,4-bis(octyloxy)butanoyl)oxy)-2-((((3-(diethylamino)propoxy)carbonyl)oxy)methyl)propyl) 9-decyl nonanedioate] | 72.60 nm and 67.12 nm | 0.012 and 0.024 | 87.31 nm and 83.42 nm | 84.05 nm and 73.04 nm |  | 100.4 nm and 87.86 nm | 98% and 96% | 99% and 97% | 6.4 | 75 nm | 0.04 | 91 nm | 79.11 nm | 0.041 | 96.76 nm | 98% | 99% | 69.4 % TSS | 20.9 % TSS | 1124.0 µg/mL | Serum TTR ([4]; i.v. 0.3 mg/kg): 337.9 µg/mL; Editing Mean % Indel ([5]; i.v. 0.1 mg/kg): 12.4%; Editing Mean % Indel ([5]; i.v. 0.3 mg/kg): 46.2%
5 | CCCCC/C=C\C/C=C\CCCCCCCC(=O)OCC(COC(=O)CC12CC3CC(CC(C3)C1)C2)COC(=O)OCCCN(CC)CC (stereo not shown) [Compound 107, 3-(2-((3 r,5 r, 7r)-adamantan-1-yl)acetoxy)-2-((((3-(diethylamino)propoxy)carbonyl)oxy)methyl)propyl (9Z,12Z)-octadeca-9,12-dienoate] |  |  |  |  |  |  |  |  | 6.43 |  |  |  |  |  |  |  |  |  |  |  | Number mean (nm) [1, 14]: 65 nm; PDI [1, 14]: 0.07; Z-avg (nm) [1, 14]: 84 nm; % E [2, 16]: 94%
6 | CCCCC/C=C\C/C=C\CCCCCCCC(=O)OCC(COC(=O)CCC(OCCCCCCCC)OCCCCCCCC)COC(=O)OCC1CCCN(C)C1 (stereo not shown) [Compound 53, 3-((4,4-bis(octyloxy)butanoyl)oxy)-2-(((((1-methylpiperidin-3-yl)methoxy)carbonyl)oxy)methyl)propyl (9Z,12Z)-octadeca-9,12-dienoate] | 56.05 nm | 0.019 | 70.47 nm | 60.35 nm | 0.040 | 76.24 nm | 99% | 99% | 6.85 |  |  |  |  |  |  |  |  |  |  |  | 
